# Structures can show the parent of a compound that is named as a salt. Where two headings read alike, the source gives them in different places.
# Tests used:
# Bacillus subtilis PCI219 = test: Minimum inhibitory concentration, serial dilution on nutrient agar; type: cell-based
# Protocol: (§1) Minimum inhibitory concentrations (mcg/ml) of the new compounds of the invention to various bacteria are estimated according to a standard serial dilution method using nutrient agar as the incubation medium, the incubation being made at 37° C for 41 hours.
# [1] = test system: Escherichia coli K-12 JR66/W677; test: as above; type: cell-based; conditions: for M.I.C.: Escherichia coli K-12 JR66/W677, nutrient agar, 37° C, 41 hours; for MIC: Escherichia coli, K12JR66/W677, 41 h
# Protocol: as §1
# [2] = test system: Escherichia coli K-12 MA290 R55; test: as above; type: cell-based; conditions: for M.I.C.: Escherichia coli K-12 MA290 R55, nutrient agar, 37° C, 41 hours; for MIC: Escherichia coli, K12MA290R55, 41 h
# Protocol: as §1
# [3] = test system: Escherichia coli K-12 ML-1410; test: as above; type: cell-based; conditions: 41 hours; for M.I.C.: 37° C; for MIC: K12ML1410, 37° C
# Protocol: as §1
# [4] = test system: Escherichia coli K-12 ML-1629; test: as above; type: cell-based; conditions: 41 hours; for M.I.C.: 37° C; for MIC: K12ML1629, 37° C
# Protocol: as §1
# [5] = test system: Escherichia coli K-12 R81; test: as above; type: cell-based; conditions: for M.I.C.: Escherichia coli K-12 R81, nutrient agar, 37° C, 41 hours; for MIC: Escherichia coli, K12R81, 41 h
# Protocol: as §1
# [6] = test system: Escherichia coli K-12 W677; test: as above; type: cell-based; conditions: 41 hours; for M.I.C.: 37° C; for MIC: K12W677, 37° C
# Protocol: as §1
# Escherichia coli K-12 = test: as above; type: cell-based
# Protocol: as §1
# [7] = test system: Klebsiella pneumoniae PCI602; test: as above; type: cell-based; conditions: 37° C, 41 hours
# Protocol: as §1
# Mycobacterium 607 = test: as above; type: cell-based; conditions: 37° C, 41 hours
# Protocol: as §1
# Proteus vulgaris OX19 = test: as above; type: cell-based; conditions: 37° C, 41 hours
# Protocol: as §1
# [8] = test system: Pseudomonas aeruginosa A3; test: as above; type: cell-based; conditions: 37° C, 41 hours
# Protocol: as §1
# [9] = test system: Pseudomonas aeruginosa GN315; test: as above; type: cell-based
# Protocol: as §1
# [10] = test system: Pseudomonas aeruginosa No.12; test: as above; type: cell-based; conditions: 37° C, 41 hours
# Protocol: as §1
# Shigella sonnei JS11746 = test: as above; type: cell-based; conditions: 37° C, 41 hours
# Protocol: as §1
# [11] = test system: Staphylococcus aureus FDA 209P; test: as above; type: cell-based; conditions: for MIC: FDA209P
# Protocol: as §1
# Bacillus subtilis = test: Antibacterial potency by cup-assay method; type: cell-based; conditions: for antibacterial potency: assuming DKB (free base) has 1000 units/mg
# [12] = test system: Staphylococcus aureus Smith S-424; test: Therapeutic treatment of bacterial infection in mice (ED50); type: in vivo; conditions: mice infected i.p. with S. aureus Smith S-424, 27.8 × 10^4 cells, single intramuscular injection immediately after inoculation; for ED50: Staphylococcus aureus, SMITHS424, im
# Protocol: Said inoculum is corresponding to a 860-fold quantity of the LD50 dosage of S.aureus Smith S-424. A solution of the test compound in sterile, isotonic sodium chloride solution was intramuscularly injected into the infected mice once immediately after the inoculation of the bacterium at dosages of 0.1 mg, 0.05 mg, 0.025 mg, 0.0125 mg and 0.0063 mg of the test compound per mouse.
# mice = conditions: for LD50 value: intravenous, mice, six per group, 20% w/v in isotonic sodium chloride solution
# in vivo = conditions: mouse, iv
# [13] = test system: some kanamycin-resistant bacteria and Pseudomonas aeruginosa; conditions: British Patent No. 1,349,302; cited from earlier work
# [14] = Bacillus subtilis PCI219, nutrient agar, 37° C, 41 hours
# [15] = Escherichia coli K-12, nutrient agar, 37° C, 41 hours
# [16] = Pseudomonas aeruginosa GN315, nutrient agar, 37° C, 41 hours
# [17] = Staphylococcus aureus FDA 209P, nutrient agar, 37° C, 41 hours
# [18] = Bacillus subtilis PCI219, nutrient agar, 37° C, 41 hours, read-out: M.I.C.
# [19] = Pseudomonas aeruginosa GN315, nutrient agar, 37° C, 41 hours, read-out: M.I.C.
# [20] = Staphylococcus aureus FDA 209P, nutrient agar, 37° C, 41 hours, read-out: M.I.C.
Molecule,M.I.C. (Bacillus subtilis PCI219; [14]) [µg/mL],M.I.C. [1] [µg/mL],M.I.C. [2] [µg/mL],M.I.C. [3] [µg/mL],M.I.C. [4] [µg/mL],M.I.C. [5] [µg/mL],M.I.C. [6] [µg/mL],M.I.C. (Escherichia coli K-12; [15]) [µg/mL],M.I.C. [7] [µg/mL],M.I.C. (Mycobacterium 607) [µg/mL],M.I.C. (Proteus vulgaris OX19) [µg/mL],M.I.C. [8] [µg/mL],"M.I.C. [9, 16] [µg/mL]",M.I.C. [10] [µg/mL],M.I.C. (Shigella sonnei JS11746) [µg/mL],"M.I.C. [11, 17] [µg/mL]",LD50 value (mice) [mg/kg],MIC [1] [µg/mL],MIC [2] [µg/mL],MIC [4] [µg/mL],also measured
"3',4'-Dideoxykanamycin B-di-N-methanesulfonic acid sodium salt [DKB-di-N-methanesulfonic acid Na salt]",< 0.2,50,50,0.78,0.78,0.78,0.78,0.78,0.39,0.39,< 0.2,0.78,> 100,1.56,0.78,< 0.2,4250,–,–,–,"antibacterial potency (Bacillus subtilis): 590 units/mg; ED50 value [12]: 1.15 mg/kg; acute toxicity relative to that of 3',4'-dideoxykanamycin B itself (mice; intravenous injection into mice, from Table 2): about 1/40"
"3',4'-Dideoxykanamycin B-di-N-methylmethane-sulfonic acid and its sodium salt",< 0.2,50,50,0.78,0.78,0.78,0.78,0.78,0.39,0.39,< 0.2,0.78,> 100,1.56,0.78,< 0.2,> 2000,–,–,–,–
"3',4'-Dideoxykanamycin B-mono-N-methanesulfonic acid and its sodium salt [DKB-mono-N-methanesulfonic acid Na salt]",< 0.2,50,50,0.78,0.78,0.78,0.78,0.78,0.39,0.39,< 0.2,0.78,> 100,1.56,0.78,< 0.2,> 1500,–,–,–,–
"3',4'-Dideoxykanamycin B-tri-N-methanesulfonic acid sodium salt [DKB-tri-N-methanesulfonic acid Na salt]",0.2,100,100,0.78,0.78,0.78,0.78,0.78,0.39,0.78,0.39,0.78,> 100,3.12,1.56,< 0.2,> 5000,–,–,–,–
"O=S(=O)(O)C(NC[C@@H]1CC[C@@H](NC(c2ccccc2)S(=O)(=O)O)[C@@H](O[C@H]2[C@H](O)[C@@H](O[C@H]3O[C@H](CO)[C@@H](O)[C@H](NC(c4ccccc4)S(=O)(=O)O)[C@H]3O)[C@H](NC(c3ccccc3)S(=O)(=O)O)C[C@@H]2NC(c2ccccc2)S(=O)(=O)O)O1)c1ccccc1 (stereo partly drawn) [3',4'-Dideoxykanamycin B-penta-N-phenylmethanesulfonic acid sodium salt]",–,–,–,–,–,–,–,–,–,–,–,–,–,–,–,–,–,100,100,0.39,"MIC (Bacillus subtilis PCI219; [18]): 0.2 µg/mL; MIC [3]: 0.78 µg/mL; MIC [5]: 0.78 µg/mL; MIC [6]: 0.78 µg/mL; MIC (Escherichia coli K-12; K12, Escherichia coli K-12, nutrient agar, 37° C, 41 hours, read-out: M.I.C.): 0.78 µg/mL; MIC [7]: 0.39 µg/mL; MIC (Mycobacterium 607): 0.78 µg/mL; MIC (Proteus vulgaris OX19): 0.39 µg/mL; MIC [8]: 0.78 µg/mL; MIC [9, 19]: > 100 µg/mL; MIC [10]: 3.12 µg/mL; MIC (Shigella sonnei JS11746): 1.56 µg/mL; MIC [11, 20]: < 0.2 µg/mL; LD50 (in vivo): > 5000 mg/kg"
"NC[C@@H]1CC[C@@H](N)[C@@H](O[C@H]2[C@H](O)[C@@H](O[C@H]3O[C@H](CO)[C@@H](O)[C@H](N)[C@H]3O)[C@H](N)C[C@@H]2N)O1 [DKB, 3',4'-dideoxykanamycin B, reference compound]",–,–,–,–,–,–,–,–,–,–,–,–,–,–,–,–,–,50,50,0.78,"MIC (Bacillus subtilis PCI219; [18]): < 0.2 µg/mL; MIC [3]: 0.78 µg/mL; MIC [5]: 0.78 µg/mL; MIC [6]: 0.78 µg/mL; MIC (Escherichia coli K-12; Escherichia coli, K12, 41 h): 0.78 µg/mL; MIC [7]: 0.39 µg/mL; MIC (Mycobacterium 607): 0.39 µg/mL; MIC (Proteus vulgaris OX19): < 0.2 µg/mL; MIC [8]: 0.78 µg/mL; MIC ([9]; Pseudomonas aeruginosa, GN315, 41 h): > 100 µg/mL; MIC [10]: 1.56 µg/mL; MIC (Shigella sonnei JS11746): 0.78 µg/mL; MIC [11, 20]: < 0.2 µg/mL; antibacterial potency (assumed reference value) (Bacillus subtilis; assumed value of the standard): 1000 units/mg; ED50 [12]: 1.15 mg/kg; antibacterial activity [13]: high antibacterial activity against some kanamycin-resistant bacteria and Pseudomonas aeruginosa"
"O=S(=O)(O)CNC[C@@H]1CC[C@@H](NCS(=O)(=O)O)[C@@H](O[C@H]2[C@H](O)[C@@H](O[C@H]3O[C@H](CO)[C@@H](O)[C@H](NCS(=O)(=O)O)[C@H]3O)[C@H](NCS(=O)(=O)O)C[C@@H]2NCS(=O)(=O)O)O1 [DKB-penta-N-methanesulfonic acid Na salt, 3',4'-dideoxykanamycin B-penta-N-methanesulfonic acid sodium salt]",–,–,–,–,–,–,–,–,–,–,–,–,–,–,–,–,–,100,100,0.39,"MIC (Bacillus subtilis PCI219; Bacillus subtilis, PCI219, 41 h): 0.2 µg/mL; MIC [7]: 0.39 µg/mL; MIC (Proteus vulgaris OX19): 0.39 µg/mL; MIC [9, 19]: > 100 µg/mL; MIC [10]: 3.12 µg/mL; MIC (Shigella sonnei JS11746): 1.56 µg/mL; MIC ([11]; Staphylococcus aureus, 41 h): < 0.2 µg/mL; antibacterial potency (Bacillus subtilis): 400 units/mg; ED50 [12]: 1.9 mg/kg; LD50 (in vivo): > 5000 mg/kg"

# — patent publication US4091202A (Zaidan Hojin Biseibutsu Kagaku Kenkyu Kai, priority 1975, dated 1978)
